Measured values taken from patent US9518018B2, “3-alkoxy, thioalkyl and amino-4-amino-6-(substituted)picolinates and their use as herbicides” (Dow AgroSciences LLC, priority 2011, dated 2016).
Read-outs that look alike come from different tables or passages of the source. Each block holds one molecule with its values, some of them ahead of it.

Experiments:
[1] = system: CHEAL: lambsquarters (Chenopodium album); experiment: Post-Emergent Test I herbicidal activity; type: in vivo; settings: for pest or weed control at 140 g/ha: Table 3, 140 g ai/ha
In short: (§1)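 Visual injury ratings (0 = none, 100 = complete kill) taken 14 d after treatment underlie these values, with GR20, GR50 and GR80 obtained by probit analysis. Plants were treated post-emergence at the first or second true-leaf stage by overhead spray at 187 L/ha.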

[2] = system: ABUTH: velvetleaf (Abutilon theophrasti); experiment: Post-Emergent Test I herbicidal activity; type: in vivo
In short: as §1

ZEAMX: corn (Zea mays) = experiment: Post-Emergent Test I herbicidal activity; type: in vivo
In short: as §1

[3] = system: ECHCG: barnyardgrass (Echinochloa crus-galli); experiment: Post-Emergent Test I herbicidal activity; type: in vivo; settings: post-emergence, 336 h, Table 3, 140 g ai/ha, read-out: Visual Growth Reduction (%)-14 Days after Application ECHCG
In short: (§2)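 Greenhouse plants at first-second true leaf stage sprayed post-emergence by track sprayer at 187 L/ha with compound in acetone/DMSO/water/isopropanol carrier with crop oil concentrate and Triton X-155, top rate plus ½× to 1/16× serial rates. Injury scored visually at 14 d, 0-100% versus untreated plants; GR20, GR50, GR80 from probit analysis.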

[4] = system: TRZAS: wheat, spring (Triticum aestivum); experiment: Post-Emergent Test I herbicidal activity; type: in vivo
In short: as §2

[5] = system: ORYSA: rice (Oryza sativa); experiment: Post-Emergent Test I herbicidal activity; type: in vivo; settings: post-emergence, 336 h, Table 3, 140 g ai/ha, read-out: Visual Growth Reduction (%)-14 Days after Application ORYSA
In short: as §2

[6] = system: CYPES: yellow nutsedge (Cyperus esculentus); experiment: Post-Emergent Test I herbicidal activity; type: in vivo; settings: post-emergence, 336 h, Table 3, 140 g ai/ha, read-out: Visual Growth Reduction (%)-14 Days after Application CYPES
In short: as §1

[7] = system: EPHHL: wild poinsettia (Euphorbia heterophylla); experiment: Post-Emergent Test I herbicidal activity; type: in vivo; settings: post-emergence, 336 h, Table 3, 140 g ai/ha, read-out: Visual Growth Reduction (%)-14 Days after Application EPHHL
In short: as §1

[8] = system: POLCO: buckwheat, wild (Polygonum convolvulus); experiment: Post-Emergent Test I herbicidal activity; type: in vivo
In short: as §1

[9] = Chenopodium album, post-emergence, 336 h, read-out: Visual Growth Reduction (%)-14 Days after Application CHEAL
[10] = Table 4, growth reduction of 20% of plant growth, 14 days after application, probit analysis
[11] = Table 4, growth reduction of 50% of plant growth, 14 days after application, probit analysis
[12] = Table 4, growth reduction of 80% of plant growth, 14 days after application, probit analysis
[13] = Abutilon theophrasti, post-emergence, 336 h, Table 3, 140 g ai/ha, read-out: Visual Growth Reduction (%)-14 Days after Application ABUTH
[14] = Zea mays, post-emergence, 336 h, Table 3, 140 g ai/ha, read-out: Visual Growth Reduction (%)-14 Days after Application ZEAMX

SMILES: COc1c(C(=O)O)nc(-c2ccc(Cl)cc2)c(F)c1N [Compound 47]
pest or weed control at 140 g/ha [1, 9]: 100%
pest or weed control at 8.75 g/ha ([1]; Chenopodium album, post-emergence, 336 h, Table 4, 8.75 g ai/ha, read-out: Visual Growth Reduction (%)-14 Days after Application CHEAL): 90%
pest or weed control at 17.5 g/ha ([1]; Chenopodium album, post-emergence, 336 h, Table 4, 17.5 g ai/ha, read-out: Visual Growth Reduction (%)-14 Days after Application CHEAL): 100%
pest or weed control at 35 g/ha ([1]; Chenopodium album, post-emergence, 336 h, Table 4, 35 g ai/ha, read-out: Visual Growth Reduction (%)-14 Days after Application CHEAL): 100%
pest or weed control at 70 g/ha ([1]; Chenopodium album, post-emergence, 336 h, Table 4, 70 g ai/ha, read-out: Visual Growth Reduction (%)-14 Days after Application CHEAL): 100%
Visual Growth Reduction (%)-14 Days after Application CHEAL ([1]; Table 4, 140 g ai/ha): 100%
GR20 CHEAL [1, 10]: <8.75 g ai/ha
GR50 CHEAL [1, 11]: <8.75 g ai/ha
GR80 CHEAL [1, 12]: <8.75 g ai/ha
pest or weed control at 140 g/ha [2, 13]: 100%
pest or weed control at 8.75 g/ha ([2]; Abutilon theophrasti, post-emergence, 336 h, Table 4, 8.75 g ai/ha, read-out: Visual Growth Reduction (%)-14 Days after Application ABUTH): 90%
pest or weed control at 17.5 g/ha ([2]; Abutilon theophrasti, post-emergence, 336 h, Table 4, 17.5 g ai/ha, read-out: Visual Growth Reduction (%)-14 Days after Application ABUTH): 95%
pest or weed control at 35 g/ha ([2]; Abutilon theophrasti, post-emergence, 336 h, Table 4, 35 g ai/ha, read-out: Visual Growth Reduction (%)-14 Days after Application ABUTH): 95%
pest or weed control at 70 g/ha ([2]; Abutilon theophrasti, post-emergence, 336 h, Table 4, 70 g ai/ha, read-out: Visual Growth Reduction (%)-14 Days after Application ABUTH): 100%
pest or weed control at 140 g/ha ([2]; Abutilon theophrasti, post-emergence, 336 h, Table 4, 140 g ai/ha, read-out: Visual Growth Reduction (%)-14 Days after Application ABUTH): 100%
GR20 ABUTH [2, 10]: <8.75 g ai/ha
GR50 ABUTH [2, 11]: <8.75 g ai/ha
GR80 ABUTH [2, 12]: <8.75 g ai/ha
GR20 ZEAMX (ZEAMX: corn (Zea mays); [10]): <8.75 g ai/ha
GR50 ZEAMX (ZEAMX: corn (Zea mays); [11]): 12.6 g ai/ha
GR80 ZEAMX (ZEAMX: corn (Zea mays); [12]): 74.1 g ai/ha
pest or weed control at 140 g/ha (ZEAMX: corn (Zea mays); [14]): 85%
pest or weed control at 8.75 g/ha (ZEAMX: corn (Zea mays); Zea mays, post-emergence, 336 h, Table 4, 8.75 g ai/ha, read-out: Visual Growth Reduction (%)-14 Days after Application ZEAMX): 40%
pest or weed control at 17.5 g/ha (ZEAMX: corn (Zea mays); Zea mays, post-emergence, 336 h, Table 4, 17.5 g ai/ha, read-out: Visual Growth Reduction (%)-14 Days after Application ZEAMX): 55%
pest or weed control at 35 g/ha (ZEAMX: corn (Zea mays); Zea mays, post-emergence, 336 h, Table 4, 35 g ai/ha, read-out: Visual Growth Reduction (%)-14 Days after Application ZEAMX): 75%
pest or weed control at 70 g/ha (ZEAMX: corn (Zea mays); Zea mays, post-emergence, 336 h, Table 4, 70 g ai/ha, read-out: Visual Growth Reduction (%)-14 Days after Application ZEAMX): 80%
pest or weed control at 140 g/ha (ZEAMX: corn (Zea mays); Zea mays, post-emergence, 336 h, Table 4, 140 g ai/ha, read-out: Visual Growth Reduction (%)-14 Days after Application ZEAMX): 85%
pest or weed control at 140 g/ha [3]: 100%
Visual Growth Reduction (%)-14 Days after Application TRZAS ([4]; Table 4, 8.75 g ai/ha): 0%
Visual Growth Reduction (%)-14 Days after Application TRZAS ([4]; Table 4, 17.5 g ai/ha): 15%
Visual Growth Reduction (%)-14 Days after Application TRZAS ([4]; Table 4, 35 g ai/ha): 30%
Visual Growth Reduction (%)-14 Days after Application TRZAS ([4]; Table 4, 70 g ai/ha): 45%
Visual Growth Reduction (%)-14 Days after Application TRZAS ([4]; Table 4, 140 g ai/ha): 50%
GR20 TRZAS [4, 10]: 30.6 g ai/ha
GR50 TRZAS [4, 11]: 98.6 g ai/ha
GR80 TRZAS [4, 12]: >140 g ai/ha
pest or weed control at 140 g/ha [5]: 45%
pest or weed control at 140 g/ha [6]: 100%
pest or weed control at 140 g/ha [7]: 100%
Visual Growth Reduction (%)-14 Days after Application POLCO ([8]; Table 4, 8.75 g ai/ha): 100%
Visual Growth Reduction (%)-14 Days after Application POLCO ([8]; Table 4, 17.5 g ai/ha): 100%
Visual Growth Reduction (%)-14 Days after Application POLCO ([8]; Table 4, 35 g ai/ha): 100%
Visual Growth Reduction (%)-14 Days after Application POLCO ([8]; Table 4, 70 g ai/ha): 100%
Visual Growth Reduction (%)-14 Days after Application POLCO ([8]; Table 4, 140 g ai/ha): 100%
GR20 POLCO [8, 10]: <8.75 g ai/ha
GR50 POLCO [8, 11]: <8.75 g ai/ha
GR80 POLCO [8, 12]: <8.75 g ai/ha

melting point: 133.5 to 135.5 °C
SMILES: COC(=O)c1nc(-c2ccc(Cl)c(OC)c2F)c(F)c(N)c1OC [Compound 34]
pest or weed control at 140 g/ha [1, 9]: 100%
pest or weed control at 140 g/ha [2, 13]: 100%
pest or weed control at 140 g/ha (ZEAMX: corn (Zea mays); [14]): 90%
pest or weed control at 140 g/ha [3]: 100%
pest or weed control at 140 g/ha [5]: 10%
pest or weed control at 140 g/ha [6]: 100%
pest or weed control at 140 g/ha [7]: 100%
